ChEMBL document CHEMBL1201861, “Genomics of Drug Sensitity in Cancer screening data, Wellcome Trust Sanger Institute”

Legend:
Experiment in all cases: cells
Conditions in all cases: Homo sapiens
HCC1395 = format: functional, cell-based
Description: SANGER: Inhibition of human HCC1395 cell growth in a cell viability assay.

MIA PaCa-2 = format: functional, cell-based
Description: SANGER: Inhibition of human MIA-PaCa-2 cell growth in a cell viability assay.

Daoy = format: functional, cell-based
Description: SANGER: Inhibition of human Daoy cell growth in a cell viability assay.

CAMA-1 = format: functional, cell-based
Description: SANGER: Inhibition of human CAMA-1 cell growth in a cell viability assay.

HSC-4 = format: functional, cell-based
Description: SANGER: Inhibition of human HSC-4 cell growth in a cell viability assay.

Panc1005 = format: functional, cell-based
Description: SANGER: Inhibition of human PANC-10-05 cell growth in a cell viability assay.

Calu-3 = format: functional, cell-based
Description: SANGER: Inhibition of human Calu-3 cell growth in a cell viability assay.

MEL-JUSO = format: functional, cell-based
Description: SANGER: Inhibition of human MEL-JUSO cell growth in a cell viability assay.

MKN-45 = format: functional, cell-based
Description: SANGER: Inhibition of human MKN45 cell growth in a cell viability assay.

HCT-15 = format: functional, cell-based
Description: SANGER: Inhibition of human HCT-15 cell growth in a cell viability assay.

U2OS = format: functional, cell-based, U-2-OS
Description: SANGER: Inhibition of human U-2-OS cell growth in a cell viability assay.

NCI-H650 = format: functional, cell-based
Description: SANGER: Inhibition of human NCI-H650 cell growth in a cell viability assay.

ABC-1 = format: functional, cell-based
Description: SANGER: Inhibition of human ABC-1 cell growth in a cell viability assay.

HCC1954 = format: functional, cell-based
Description: SANGER: Inhibition of human HCC1954 cell growth in a cell viability assay.

IGR-1 = format: functional, cell-based
Description: SANGER: Inhibition of human IGR-1 cell growth in a cell viability assay.

CHP-212 = format: functional, cell-based
Description: SANGER: Inhibition of human CHP-212 cell growth in a cell viability assay.

RCM-1 = format: functional, cell-based
Description: SANGER: Inhibition of human RCM-1 cell growth in a cell viability assay.

NB14 = format: functional, cell-based
Description: SANGER: Inhibition of human NB14 cell growth in a cell viability assay.

SW780 = format: functional, cell-based
Description: SANGER: Inhibition of human SW780 cell growth in a cell viability assay.

SK-MEL-28 = format: functional, cell-based
Description: SANGER: Inhibition of human SK-MEL-28 cell growth in a cell viability assay.

BXPC-3 = format: functional, cell-based
Description: SANGER: Inhibition of human BxPC-3 cell growth in a cell viability assay.

KYSE-450 = format: functional, cell-based
Description: SANGER: Inhibition of human KYSE-450 cell growth in a cell viability assay.

KYSE-270 = format: functional, cell-based
Description: SANGER: Inhibition of human KYSE-270 cell growth in a cell viability assay.

G-361 = format: functional, cell-based
ASPC1 = format: functional, cell-based
Description: SANGER: Inhibition of human AsPC-1 cell growth in a cell viability assay.

TYK-nu = format: functional, cell-based
Description: SANGER: Inhibition of human TYK-nu cell growth in a cell viability assay.

SK-LU-1 = format: functional, cell-based
Description: SANGER: Inhibition of human SK-LU-1 cell growth in a cell viability assay.

C32 = format: functional, cell-based
Description: SANGER: Inhibition of human C32 cell growth in a cell viability assay.

HSC-2 = format: functional, cell-based
Description: SANGER: Inhibition of human HSC-2 cell growth in a cell viability assay.

EGI-1 = format: functional, cell-based
Description: SANGER: Inhibition of human EGI-1 cell growth in a cell viability assay.

CAL-62 = format: functional, cell-based
Description: SANGER: Inhibition of human CAL-62 cell growth in a cell viability assay.

HuP-T4 = format: functional, cell-based
Description: SANGER: Inhibition of human HuP-T4 cell growth in a cell viability assay.

AN3-CA = format: functional, cell-based
Description: SANGER: Inhibition of human AN3-CA cell growth in a cell viability assay.

NB17 = format: functional, cell-based
Description: SANGER: Inhibition of human NB17 cell growth in a cell viability assay.

C3A = format: functional, cell-based
Description: SANGER: Inhibition of human C3A cell growth in a cell viability assay.

SW-620 = format: functional, cell-based
Description: SANGER: Inhibition of human SW620 cell growth in a cell viability assay.

RPMI-7951 = format: functional, cell-based
Description: SANGER: Inhibition of human RPMI-7951 cell growth in a cell viability assay.

A204 = format: functional, cell-based
Description: SANGER: Inhibition of human A204 cell growth in a cell viability assay.

UACC-62 = format: functional, cell-based
Description: SANGER: Inhibition of human UACC-62 cell growth in a cell viability assay.

CAPAN-1 = format: functional, cell-based
Description: SANGER: Inhibition of human CAPAN-1 cell growth in a cell viability assay.

BFTC-909 = format: functional, cell-based
Description: SANGER: Inhibition of human BFTC-909 cell growth in a cell viability assay.

T47D = format: functional, cell-based
Description: SANGER: Inhibition of human T47D cell growth in a cell viability assay.

SK-MEL3 = format: functional, cell-based, SK-MEL-3
Description: SANGER: Inhibition of human SK-MEL-3 cell growth in a cell viability assay.

FaDu = format: functional, cell-based
Description: SANGER: Inhibition of human FADU cell growth in a cell viability assay.

MOLT-13 = format: functional, cell-based
Description: SANGER: Inhibition of human MOLT-13 cell growth in a cell viability assay.

MDA-MB-415 = format: functional, cell-based
HT1197 = format: functional, cell-based, HT-1197
Description: SANGER: Inhibition of human HT-1197 cell growth in a cell viability assay.

GMS-10 = format: functional, cell-based
Description: SANGER: Inhibition of human GMS-10 cell growth in a cell viability assay.

## CC[C@]1(O)C[C@@H]2CN(CCc3c([nH]c4ccccc34)[C@@](C(=O)OC)(c3cc4c(cc3OC)N(C)[C@H]3[C@@](O)(C(=O)OC)[C@H](OC(C)=O)[C@]5(CC)C=CCN6CC[C@]43[C@@H]65)C2)C1 [VINBLASTINE]
HCC1395
  IC50: 29.2 nM
MIA PaCa-2
  IC50: 3.39 nM
Daoy
  IC50: 3.1 nM
CAMA-1
  IC50: 32 nM
HSC-4
  IC50: 2.36 nM
Panc1005
  IC50: 42.8 nM
Calu-3
  IC50: > 100 nM
MEL-JUSO
  IC50: 17.5 nM
MKN-45
  IC50: 48.4 nM
HCT-15
  IC50: 78.6 nM
U2OS
  IC50: 25.7 nM
NCI-H650
  IC50: 27.1 nM
ABC-1
  IC50: 15.5 nM
HCC1954
  IC50: > 100 nM
IGR-1
  IC50: 2.08 nM
CHP-212
  IC50: 3.55 nM
RCM-1
  IC50: > 100 nM
NB14
  IC50: 4.95 nM
SW780
  IC50: 2.33 nM
SK-MEL-28
  IC50: 17 nM
BXPC-3
  IC50: 8.01 nM
KYSE-450
  IC50: 9.65 nM
KYSE-270
  IC50: 9.63 nM
G-361
  IC50: > 100 nM
ASPC1
  IC50: 13.2 nM
TYK-nu
  IC50: 11.9 nM
SK-LU-1
  IC50: 18.7 nM
C32
  IC50: > 100 nM
HSC-2
  IC50: 20.2 nM
EGI-1
  IC50: 10.8 nM
CAL-62
  IC50: 10.1 nM
HuP-T4
  IC50: 43.2 nM
AN3-CA
  IC50: 9.76 nM
NB17
  IC50: 21.8 nM
C3A
  IC50: > 100 nM
SW-620
  IC50: 8.84 nM
RPMI-7951
  IC50: 1.66 nM
A204
  IC50: 8.76 nM
UACC-62
  IC50: 8.06 nM
CAPAN-1
  IC50: 52.3 nM
BFTC-909
  IC50: 7.53 nM
T47D
  IC50: 7.71 nM
SK-MEL3
  IC50: > 100 nM
FaDu
  IC50: 20 nM
MOLT-13
  IC50: 5.6 nM
MDA-MB-415
  IC50: 18.5 nM
HT1197
  IC50: 99.8 nM
GMS-10
  IC50: 11.3 nM

## COc1cc(Nc2c(C#N)cnc3cc(OCCCN4CCN(C)CC4)c(OC)cc23)c(Cl)cc1Cl [BOSUTINIB]
HCC1395
  IC50: > 2000 nM
MIA PaCa-2
  IC50: > 2000 nM
Daoy
  IC50: > 2000 nM
CAMA-1
  IC50: > 2000 nM
HSC-4
  IC50: 172 nM
Panc1005
  IC50: > 2000 nM
Calu-3
  IC50: > 2000 nM
MEL-JUSO
  IC50: > 2000 nM
MKN-45
  IC50: > 2000 nM
HCT-15
  IC50: > 2000 nM
U2OS
  IC50: > 2000 nM
NCI-H650
  IC50: > 2000 nM
ABC-1
  IC50: > 2000 nM
HCC1954
  IC50: > 2000 nM
IGR-1
  IC50: > 2000 nM
CHP-212
  IC50: > 2000 nM
RCM-1
  IC50: > 2000 nM
NB14
  IC50: > 2000 nM
SW780
  IC50: > 2000 nM
SK-MEL-28
  IC50: > 2000 nM
BXPC-3
  IC50: > 2000 nM
KYSE-450
  IC50: > 2000 nM
KYSE-270
  IC50: > 2000 nM
G-361
  IC50: > 2000 nM
ASPC1
  IC50: > 2000 nM
TYK-nu
  IC50: > 2000 nM
SK-LU-1
  IC50: > 2000 nM
C32
  IC50: > 2000 nM
HSC-2
  IC50: > 2000 nM
EGI-1
  IC50: > 2000 nM
CAL-62
  IC50: > 2000 nM
HuP-T4
  IC50: > 2000 nM
AN3-CA
  IC50: > 2000 nM
NB17
  IC50: > 2000 nM
C3A
  IC50: > 2000 nM
SW-620
  IC50: > 2000 nM
RPMI-7951
  IC50: > 2000 nM
A204
  IC50: > 2000 nM
UACC-62
  IC50: > 2000 nM
CAPAN-1
  IC50: > 2000 nM
BFTC-909
  IC50: > 2000 nM
T47D
  IC50: > 2000 nM
SK-MEL3
  IC50: > 2000 nM
FaDu
  IC50: > 2000 nM
MOLT-13
  IC50: > 2000 nM
MDA-MB-415
  IC50: > 2000 nM
HT1197
  IC50: > 2000 nM
GMS-10
  IC50: > 2000 nM

## C[C@]12O[C@H](C[C@]1(O)CO)n1c3ccccc3c3c4c(c5c6ccccc6n2c5c31)CNC4=O [LESTAURTINIB]
HCC1395
  IC50: > 2000 nM
MIA PaCa-2
  IC50: 862 nM
Daoy
  IC50: 1040 nM
CAMA-1
  IC50: 1040 nM
HSC-4
  IC50: 203 nM
Panc1005
  IC50: > 2000 nM
Calu-3
  IC50: > 2000 nM
MEL-JUSO
  IC50: 503 nM
MKN-45
  IC50: 1120 nM
HCT-15
  IC50: 566 nM
U2OS
  IC50: 82.9 nM
NCI-H650
  IC50: 677 nM
ABC-1
  IC50: > 2000 nM
HCC1954
  IC50: > 2000 nM
IGR-1
  IC50: 1490 nM
CHP-212
  IC50: 82.2 nM
RCM-1
  IC50: 1590 nM
NB14
  IC50: 19.6 nM
SW780
  IC50: 327 nM
SK-MEL-28
  IC50: 327 nM
BXPC-3
  IC50: > 2000 nM
KYSE-450
  IC50: > 2000 nM
KYSE-270
  IC50: 392 nM
G-361
  IC50: 221 nM
ASPC1
  IC50: 1620 nM
TYK-nu
  IC50: 185 nM
SK-LU-1
  IC50: 256 nM
C32
  IC50: 182 nM
HSC-2
  IC50: 1500 nM
EGI-1
  IC50: 572 nM
CAL-62
  IC50: 254 nM
HuP-T4
  IC50: 1330 nM
AN3-CA
  IC50: 1250 nM
NB17
  IC50: 382 nM
C3A
  IC50: > 2000 nM
SW-620
  IC50: 557 nM
RPMI-7951
  IC50: 318 nM
A204
  IC50: 152 nM
UACC-62
  IC50: 1120 nM
CAPAN-1
  IC50: > 2000 nM
BFTC-909
  IC50: 249 nM
T47D
  IC50: > 2000 nM
SK-MEL3
  IC50: 160 nM
FaDu
  IC50: 648 nM
MOLT-13
  IC50: 409 nM
MDA-MB-415
  IC50: > 2000 nM
HT1197
  IC50: > 2000 nM
GMS-10
  IC50: 463 nM
